Data: ChEMBL document CHEMBL1201862, “PubChem BioAssay data set” (2004)
Values joined by “and” are separate entries in the source; they are usually repeats but may differ in a detail not shown here. Identical values can stand only once.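 Results reflect a 48-hour exposure of cells in 96-well plates to compound at five concentrations. The concentration for 50% growth inhibition is given as GI50.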 Active and inactive are the calls of the source. No stated cut-off is given here; in the data, active = GI50 up to about 1.1 µM and inactive = higher.

What was measured:
Assay in all cases: inhibition of tumour cell growth, NCI panel, 48 h
[1] = tested on: M14
[2] = tested on: MDA-MB-435
[3] = tested on: MDA-MB-231
[4] = tested on: HOP-18
[5] = tested on: 786-0
[6] = tested on: HL-60
[7] = tested on: SK-MEL-2
[8] = tested on: HOP-62
[9] = tested on: BT-549
[10] = tested on: CAKI-1
[11] = tested on: KM12
[12] = tested on: T47D
[13] = tested on: HCT-116
[14] = tested on: DLD-1
[15] = tested on: HCC 2998
[16] = tested on: UACC-62
[17] = tested on: OVCAR-4
[18] = tested on: NCI/ADR-RES
[19] = tested on: Hs-578T
[20] = tested on: A549
[21] = tested on: HCT-15
[22] = tested on: TK-10
[23] = tested on: RXF 631
[24] = tested on: RPMI-8226
[25] = tested on: PC-3
[26] = tested on: OVCAR-5
[27] = tested on: MDA-N
[28] = tested on: DU-145
[29] = tested on: MCF7
[30] = tested on: SR
[31] = tested on: SK-MEL-5
[32] = tested on: KM-20L2
[33] = tested on: NCI-H460
[34] = tested on: HT-29
[35] = tested on: K562
[36] = tested on: SN12C
[37] = tested on: SF-268
[38] = tested on: EKVX
[39] = tested on: Malme-3M
[40] = tested on: DMS-114
[41] = tested on: NCI-H226
[42] = tested on: NCI-H522
[43] = tested on: SNB-75
[44] = tested on: LOX IMVI
[45] = tested on: LXFL 529
[46] = tested on: XF498
[47] = tested on: SK-OV-3
[48] = tested on: U-251
[49] = tested on: SNB-19
[50] = tested on: NCI-H23
[51] = tested on: RXF 393
[52] = tested on: A498
[53] = tested on: COLO 205
[54] = tested on: SNB-78
[55] = tested on: OVCAR-3
[56] = tested on: ACHN
[57] = tested on: SW-620
[58] = tested on: UACC-257
[59] = tested on: UO-31
[60] = tested on: SF-295
[61] = tested on: SK-MEL-28
[62] = tested on: MOLT-4
[63] = tested on: M19-MEL
[64] = tested on: OVCAR-8
[65] = tested on: CCRF-CEM
[66] = tested on: SF-539
[67] = tested on: DMS-273
[68] = tested on: HOP-92
[69] = tested on: IGROV-1

Measured: GI50

O=C1C(Br)=C(Br)C(=O)c2ccccc21 [2,3-Dibromo-1,4-naphthoquinone]
17.2 µM and 11.9 µM: [21]
inactive: [1] 15.1 µM and 8.77 µM | [2] 7.98 µM | [3] 5.19 µM | [4] 20.1 µM | [5] 18.3 µM and 9.77 µM | [6] 2.7 µM | [7] 19.6 µM and 10.4 µM | [8] 18.5 µM and 21.5 µM | [9] 4.61 µM | [10] 6.34 µM | [11] 19.6 µM and 12.8 µM | [12] 3.5 µM | [13] 17.9 µM and 12.2 µM | [14] 15.2 µM and 18.5 µM | [15] 21.7 µM and 19.1 µM | [16] 16.7 µM and 9.71 µM | [17] 17.1 µM and 11.1 µM | [18] 22.2 µM | [19] 4.98 µM | [20] 13.6 µM | [22] 17.1 µM and 12.7 µM | [23] 5.94 µM | [24] 3.01 µM | [25] 17.5 µM | [26] 20.5 µM and 10.6 µM | [27] 3.84 µM | [28] 18.7 µM | [29] 17.5 µM | [30] 2.2 µM | [31] 10.5 µM | [32] 30.2 µM and 15.1 µM

O=C1CCCCC1S(=O)(=O)c1ccccc1 (stereo not drawn)
> 100 µM: [21]
inactive: [1] > 100 µM | [33] > 100 µM | [4] > 100 µM | [5] > 100 µM | [6] > 100 µM | [34] > 100 µM | [35] > 100 µM | [36] > 100 µM | [7] > 100 µM | [8] > 100 µM | [10] > 100 µM | [37] > 100 µM | [38] > 100 µM | [39] > 100 µM | [40] > 100 µM | [41] > 100 µM | [42] > 100 µM | [43] > 100 µM | [11] > 100 µM | [44] > 100 µM | [45] > 100 µM | [46] > 100 µM | [13] > 100 µM | [14] > 100 µM | [47] > 100 µM | [15] > 100 µM | [16] > 100 µM | [17] > 100 µM | [48] > 100 µM | [49] > 100 µM | [50] > 100 µM | [51] > 100 µM | [52] > 100 µM | [53] > 100 µM | [54] > 100 µM | [55] > 100 µM | [20] > 100 µM | [56] > 100 µM | [57] > 100 µM | [22] > 100 µM | [58] > 100 µM | [24] > 100 µM | [26] > 100 µM | [59] > 100 µM | [60] > 100 µM | [61] > 100 µM | [62] > 100 µM | [63] > 100 µM | [64] > 100 µM | [30] > 100 µM | [31] > 100 µM | [32] > 100 µM | [65] > 100 µM | [66] > 100 µM | [67] > 100 µM | [68] > 100 µM | [69] > 100 µM

CN(C)CC1CC/C(=C\c2ccc(O)cc2)C1=O (stereo not drawn)
inactive: [1] 2.14 µM | [2] 5.07 µM | [33] 17.5 µM | [3] 4.14 µM | [4] 6.35 µM | [5] 2.16 µM | [34] 3.04 µM | [36] 5.64 µM | [7] 8.28 µM | [8] 18.5 µM | [9] 2.06 µM | [10] 1.63 µM | [37] 9.62 µM | [38] 4.83 µM | [39] 2.94 µM | [40] 10 µM | [41] 10.4 µM | [42] 1.47 µM | [43] 11 µM | [11] 4.18 µM | [44] 2.3 µM | [45] 1.85 µM | [46] 5.82 µM | [12] 2.14 µM | [13] 2 µM | [14] 2.58 µM | [47] 18.4 µM | [15] 10.7 µM | [16] 6.12 µM | [17] 7.38 µM | [48] 6.71 µM | [49] 16.9 µM | [50] 6.67 µM | [51] 2.07 µM | [52] 9.35 µM | [18] 5.32 µM | [53] 1.87 µM | [54] 11.4 µM | [55] 3.67 µM | [19] 7.11 µM | [20] 19 µM | [56] 3.51 µM | [57] 2.33 µM | [22] 3.2 µM | [58] 3.94 µM | [25] 9.08 µM | [26] 17.4 µM | [59] 12.9 µM | [60] 19.2 µM | [27] 2.71 µM | [61] 2.48 µM | [62] 1.69 µM | [28] 16.1 µM | [63] 2.78 µM | [64] 4.6 µM | [29] 1.66 µM | [31] 8.28 µM | [32] 9.55 µM | [66] 7.8 µM | [67] 3.3 µM | [68] 2.48 µM | [69] 11.3 µM
active: [6] 0.631 µM | [35] 0.975 µM | [24] 1.02 µM | [30] 0.931 µM | [65] 0.933 µM
2.21 µM: [21]

CN1CCCC2(CCCc3ccccc32)C1 (stereo not drawn)
inactive: [1] > 100 µM | [33] > 100 µM | [5] > 100 µM | [6] > 100 µM | [34] > 100 µM | [35] > 100 µM | [36] > 100 µM | [7] > 100 µM | [8] > 100 µM | [10] > 100 µM | [37] > 100 µM | [38] > 100 µM | [39] > 100 µM | [40] > 100 µM | [41] > 100 µM | [42] > 100 µM | [43] > 100 µM | [11] > 100 µM | [44] > 100 µM | [45] > 100 µM | [13] > 100 µM | [14] > 100 µM | [47] > 100 µM | [15] > 100 µM | [16] > 100 µM | [17] > 100 µM | [48] > 100 µM | [50] > 100 µM | [52] > 100 µM | [53] > 100 µM | [54] > 100 µM | [55] > 100 µM | [20] > 100 µM | [56] > 100 µM | [57] > 100 µM | [22] > 100 µM | [23] > 100 µM | [58] > 100 µM | [24] > 100 µM | [26] > 100 µM | [59] 80.2 µM | [60] > 100 µM | [61] > 100 µM | [62] > 100 µM | [63] > 100 µM | [64] > 100 µM | [30] > 100 µM | [31] > 100 µM | [32] > 100 µM | [65] > 100 µM | [66] > 100 µM | [67] > 100 µM | [68] 69.5 µM | [69] > 100 µM
> 100 µM: [21]
